Values of other authors, collected in patent US20210065841A1, “METHOD FOR DETERMINING ANDROGEN AND ANTI-ANDROGEN EFFECTS ON SUBSTANCES” (priority 2018, published 2021).

Target: T1, androgen receptor (Homo sapiens, UniProt P10275)
T1 sequence (P10275 1-920): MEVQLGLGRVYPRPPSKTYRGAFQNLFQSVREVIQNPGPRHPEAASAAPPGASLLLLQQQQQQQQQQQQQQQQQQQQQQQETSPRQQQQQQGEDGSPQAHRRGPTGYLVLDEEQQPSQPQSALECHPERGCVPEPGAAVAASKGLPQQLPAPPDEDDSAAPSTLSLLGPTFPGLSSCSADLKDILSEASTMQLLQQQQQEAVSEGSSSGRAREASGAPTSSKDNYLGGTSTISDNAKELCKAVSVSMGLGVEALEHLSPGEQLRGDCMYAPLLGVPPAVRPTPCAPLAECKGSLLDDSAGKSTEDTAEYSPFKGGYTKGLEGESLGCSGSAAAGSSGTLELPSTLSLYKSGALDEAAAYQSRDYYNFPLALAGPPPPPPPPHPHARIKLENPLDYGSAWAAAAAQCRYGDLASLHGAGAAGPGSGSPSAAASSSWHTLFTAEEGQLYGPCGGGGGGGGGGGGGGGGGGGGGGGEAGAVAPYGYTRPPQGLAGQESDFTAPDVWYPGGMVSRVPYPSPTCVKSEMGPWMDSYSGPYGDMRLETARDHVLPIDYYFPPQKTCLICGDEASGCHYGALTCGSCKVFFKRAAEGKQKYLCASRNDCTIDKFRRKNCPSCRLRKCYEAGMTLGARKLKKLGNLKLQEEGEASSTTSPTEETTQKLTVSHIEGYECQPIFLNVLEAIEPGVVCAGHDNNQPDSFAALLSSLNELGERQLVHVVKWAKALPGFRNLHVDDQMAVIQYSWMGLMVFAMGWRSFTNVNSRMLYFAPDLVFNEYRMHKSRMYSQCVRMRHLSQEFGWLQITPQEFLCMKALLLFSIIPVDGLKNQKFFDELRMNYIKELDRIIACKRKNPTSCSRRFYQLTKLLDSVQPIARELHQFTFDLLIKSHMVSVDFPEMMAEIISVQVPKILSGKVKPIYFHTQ
Conditions: previous reports

## BrC1CCC(Br)C(Br)CCC1Br (centres unmarked) [TBCO]
  androgen receptor antagonistic properties: androgen receptor antagonistic properites

## CCCCC(CC)COC(=O)c1cc(Br)c(Br)c(Br)c1Br (centres unmarked) [TBB]
  androgen receptor antagonistic properties: androgen receptor antagonistic properites
